Drawing on ChEMBL document CHEMBL5143618, “Design, synthesis, and antitumor activity evaluation of novel acyl sulfonamide spirodienones” (Bioorg Med Chem, 2022), this text covers IC50, Activity and viability for 21 molecules.

pIC50: −log10 of the molar value.

The subject of test [1] is A549. Kind of test: cells. The class given is functional, cell-based. Conditions: Homo sapiens, A549, 74 h.
Description: Antiproliferative activity against human A549 cells assessed as inhibition of cell growth measured after 74 hrs by SRB assay
Test [2] deals with MDA-MB-231. In words: cells. The class given is functional, cell-based. The following applies: Homo sapiens, MDA-MB-231, 74 h.
Description: Antiproliferative activity against human MDA-MB-231 cells assessed as inhibition of cell growth measured after 74 hrs by SRB assay
The test system of test [3] is HeLa. In words: cells. It counts as functional, cell-based. Conditions: Homo sapiens, 74 h.
Description: Antiproliferative activity against human HeLa cells assessed as inhibition of cell growth measured after 74 hrs by SRB assay
Test [4] relates to HepG2. In words: Antiproliferative activity against human HepG2 cells assessed as inhibition of cell growth measured after 74 hrs by SRB assay. The class given is functional, cell-based. Conditions: HepG2, 74 h. A general note: The SRB assay estimates cell density from bound dye.
Test [5] has as its target 72 kDa type IV collagenase (Homo sapiens, UniProt P08253). In words: Inhibition of MMP2 (unknown origin) using Mca-PLGLDpaAR fluorescent substrate incubated for 2 hrs by microplate reader method.
In test [6] the test system is MDA-MB-231. Kind of test: Induction of apoptosis in human MDA-MB-231 cells assessed as necrotic cells at 10 uM incubated for 24 hrs by annexin V-FITC and PI staining based flow cytometry analysis (reference value: 0.68 %). It counts as functional. On the technique in general: Flow cytometry measures light scatter and fluorescence of single cells or particles in a stream.

Test [7] concerns MDA-MB-231. In words: Induction of cell cycle arrest in human MDA-MB-231 cells assessed as accumulation of cells in S phase at 10 uM incubated for 24 hrs by PI staining based flow cytometry analysis (reference value: 16.61 %). The class given is functional.
Test [8] has as its system MDA-MB-231. Kind of test: Induction of apoptosis in human MDA-MB-231 cells assessed as viable cells at 10 uM incubated for 24 hrs by annexin V-FITC and PI staining based flow cytometry analysis (reference value: 93.6 %). It counts as functional. The following applies: read-out: Activity.
Test [9] deals with MDA-MB-231. In words: Induction of cell cycle arrest in human MDA-MB-231 cells assessed as accumulation of cells in G2/G1 phase at 10 uM incubated for 24 hrs by PI staining based flow cytometry analysis (reference value: 1.80 %). It counts as functional.
Test [10] deals with MDA-MB-231. Kind of test: Induction of cell cycle arrest in human MDA-MB-231 cells assessed as accumulation of cells in G1 phase at 10 uM incubated for 24 hrs by PI staining based flow cytometry analysis (reference value: 74.44 %). The class given is functional.
Test [11] has as its system MDA-MB-231. In words: Induction of cell cycle arrest in human MDA-MB-231 cells assessed as accumulation of cells in G2 phase at 10 uM incubated for 24 hrs by PI staining based flow cytometry analysis (reference value: 8.95 %). The class given is functional.
For test [12], the system named is MDA-MB-231. Kind of test: Induction of apoptosis in human MDA-MB-231 cells assessed as late apoptotic cells at 10 uM incubated for 24 hrs by annexin V-FITC and PI staining based flow cytometry analysis (reference value: 1.02 %). The class given is functional.
Test [13] concerns MDA-MB-231. In words: Induction of apoptosis in human MDA-MB-231 cells assessed as early apoptotic cells at 10 uM incubated for 24 hrs by annexin V-FITC and PI staining based flow cytometry analysis (reference value: 4.66 %). It counts as functional.

Chain of 72 kDa type IV collagenase (P08253 whole entry): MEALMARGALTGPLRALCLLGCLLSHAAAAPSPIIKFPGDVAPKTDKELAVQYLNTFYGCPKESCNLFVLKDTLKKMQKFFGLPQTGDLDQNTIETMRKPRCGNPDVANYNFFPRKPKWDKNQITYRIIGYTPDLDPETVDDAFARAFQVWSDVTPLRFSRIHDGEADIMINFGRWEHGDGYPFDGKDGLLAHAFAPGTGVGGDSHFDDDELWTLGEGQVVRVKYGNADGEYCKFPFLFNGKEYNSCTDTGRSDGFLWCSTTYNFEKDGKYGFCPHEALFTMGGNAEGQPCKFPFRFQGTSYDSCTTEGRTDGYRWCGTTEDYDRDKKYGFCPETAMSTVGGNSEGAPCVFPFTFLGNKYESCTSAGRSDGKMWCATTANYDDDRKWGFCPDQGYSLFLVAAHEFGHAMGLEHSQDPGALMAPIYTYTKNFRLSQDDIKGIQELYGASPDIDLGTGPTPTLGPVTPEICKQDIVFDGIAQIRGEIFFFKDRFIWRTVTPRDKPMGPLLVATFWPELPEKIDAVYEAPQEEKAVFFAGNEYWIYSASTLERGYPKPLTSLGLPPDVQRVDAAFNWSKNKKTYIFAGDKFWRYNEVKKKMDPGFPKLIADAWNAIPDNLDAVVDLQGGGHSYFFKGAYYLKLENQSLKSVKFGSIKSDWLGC

Consider `O=C1C=CC2(C=C1)OCC(=O)N2S(=O)(=O)c1ccc(F)c(F)c1`, for which the pIC50 was 7.30 in test [1], less than 5.00 in [2], 7.52 in test [3] and less than 5.00 in [4].

Regarding `O=C1C=CC2(C=C1)OCC(=O)N2S(=O)(=O)c1ccc([N+](=O)[O-])cc1`, the pIC50 in test [1], in [2], in [3] and in [4] was less than 5.00 in each case.

`COc1ccc(S(=O)(=O)N(CC(=O)NO)CC(C)C)cc1` had a pIC50 in test [5] of 9.23.

For `COc1ccc(/C=C\c2cc(OC)c(OC)c(OC)c2)cc1O` [COMBRETASTATIN A4], the Activity in [6] is 0.73%; in test [7] it was 0%; in [9], 1.8%; in [10], 8.4%; in [11], 91.6%; in [12] it was 4.95%. Besides, the Activity in test [13] came to 20.6%. Besides, the viability at 10 µM in test [8] was determined as 73.7%.

With `O=C1C=CC2(C=C1)OCC(=O)N2S(=O)(=O)c1ccc(OC(F)(F)F)cc1`, the pIC50 is 7.40 in test [1], less than 5.00 in test [2], less than 5.00 in test [3] and less than 5.00 in [4].

For `O=C1C=CC2(C=C1)OCC(=O)N2S(=O)(=O)c1ccccc1OC(F)(F)F`, the pIC50 in [1] is less than 5.00; in test [2], less than 5.00; in test [3] it was 6.85; in test [4], less than 5.00.

Turning to `O=C1C=CC2(C=C1)OCC(=O)N2S(=O)(=O)c1ccccc1C(F)(F)F`, the negative-log IC50 (pIC50) in test [1] is less than 5.00; in [2] it was less than 5.00; in test [3], 7.70; in test [4], 6.23.

Turning to `CC1OC2(C=CC(=O)C=C2)N(S(=O)(=O)c2cccs2)C1=O` (configuration not stated), the pIC50 in test [1] was less than 5.00; in test [2] it was less than 5.00; in test [3], 6.57; in [4], less than 5.00.

As for `O=C1C=CC2(C=C1)OCC(=O)N2S(=O)(=O)c1cccs1`, the negative-log IC50 (pIC50) is less than 5.00 in [1], 7.70 in test [2], 5.47 in [3] and less than 5.00 in [4].

On to `Cc1ccc(S(=O)(=O)N2C(=O)C(C)OC23C=CC(=O)C=C3)cc1` (configuration not stated), for which the pIC50 in test [1] is less than 5.00; in test [2], 5.96; in [3], less than 5.00; in test [4], 6.27.

Consider `O=C1C=CC2(C=C1)OCC(=O)N2S(=O)(=O)c1ccc(C(F)(F)F)cc1`, for which the negative-log IC50 (pIC50) in test [1] is less than 5.00; in test [2], 5.68; in [3], 6.11; in test [4] it was 6.12.

Take `CC(=O)O[C@H]1C(=O)[C@@]2(C)[C@H]([C@H](OC(=O)c3ccccc3)[C@]3(O)C[C@H](OC(=O)[C@H](O)[C@@H](NC(=O)c4ccccc4)c4ccccc4)C(C)=C1C3(C)C)[C@]1(OC(C)=O)CO[C@@H]1C[C@@H]2O` [PACLITAXEL]: the pIC50 in test [4] is 7.89.

Regarding `O=C1C=CC2(C=C1)OCC(=O)N2S(=O)(=O)c1ccc(Cl)cc1`, the negative logarithm of the IC50 (pIC50) in [1] was less than 5.00; in [2], 5.55; in test [3] it was less than 5.00; in [4] it was 6.07.

For `N#Cc1cccc(S(=O)(=O)N2C(=O)COC23C=CC(=O)C=C3)c1`, the negative-log IC50 (pIC50) was 5.72 in [1], less than 5.00 in [2], 6.74 in [3] and less than 5.00 in [4].

In the case of `O=C1C=CC2(C=C1)OCC(=O)N2S(=O)(=O)c1cccc(C(F)(F)F)c1`, the negative-log IC50 (pIC50) was 5.02 in [1], less than 5.00 in test [2], 6.24 in test [3] and less than 5.00 in [4].

For `CS(=O)(=O)N1C(=O)COC12C=CC(=O)C=C2`, the pIC50 in test [1] is less than 5.00; in test [2] it was less than 5.00; in test [3] it was 5.12; in test [4], less than 5.00.

With `COc1ccc(S(=O)(=O)N2C(=O)COC23C=CC(=O)C=C3)cc1`, the pIC50 is less than 5.00 in test [1], less than 5.00 in test [2], 6.06 in test [3] and 5.79 in [4].

As for `Cc1ccccc1S(=O)(=O)N1C(=O)COC12C=CC(=O)C=C2`, the pIC50 in test [1] is less than 5.00; in [2], less than 5.00; in test [3], 5.43; in test [4], 6.12.

As to `O=C1C=CC2(C=C1)OCC(=O)N2S(=O)(=O)c1ccccc1`, the negative logarithm of the IC50 (pIC50) in test [1], in test [2], in [3] and in [4] was less than 5.00 each time.

Turning to `O=C1C=CC2(C=C1)OCC(=O)N2S(=O)(=O)c1ccc(Br)s1`, the pIC50 is 7.30 in test [1], less than 5.00 in [2], 7.52 in test [3] and 6.62 in test [4].

Turning to `O=C1C=CC2(C=C1)OCC(=O)N2S(=O)(=O)c1ccc(N2CCCC2=O)cc1`, the pIC50 in [1] is 8.30; in test [2], less than 5.00; in test [3], 6.06; in [4], less than 5.00.

What is called pIC50 is the negative decadic logarithm of the IC50, by convention in mol/L.
